“And” between values parts separate entries of the source, which are not always exact repeats. Equal entries are not always repeated.
Test system: 857933-349-R-J2-PDC complex spheroids, viability
Test: Anticancer human tumor 857933-349-R-J2-PDC patient-derived colon adenocarcinoma cell line growth inhibition [GQUAD]
Details: for viability, T/C: stronger effect = lower value
Text: DNA G-quadruplex Stabilizer Agents in Combinations in Complex Spheroids
A high-throughput screen of multi-cell type tumor spheroids was designed to identify active combinations of DNA G-quadruplex stabilizer agents and targeted small molecules. Complex spheroids include a stromal component modeled by human endothelial cells (HUVEC) and fibroblasts modeled by human mesenchymal stem cells (MSCs). The concentration ranges selected for each drug and investigational agent were based upon clinically achievable concentrations if the clinical Cmax of the agent was known.
Compounds. The drugs and investigational agents: pidnarulex (CX-5461; NSC782164), APTO-253 (NSC789042), BRACO-19 (NSC847499), peposertib (NSC802822), ceralasertib (NSC780249), elimusertib (NSC800525), camonsertib (NSC841442), AZD-1390 (NSC803789), olaparib (NSC753686), talazoparib (NSC767125), ART-558 (NSC835418), sotorasib (NSC818433), MRTX-1133 (NSC836407), SN-38 (NSC673596), topotecan (NSC609699), etoposide (NSC141540), doxorubicin (NSC123127), gemcitabine (NSC613327), 5-fluorouracil (NSC19893), paclitaxel (NSC125973), vemurafenib (NSC761431), panobinostat (NSC761190), R-306465 (JNJ-16241199; NSC773264), adavosertib (NSC754352), TP-3654 (NSC805149), carboplatin (NSC241240), KSQ-4279 (NSC840948), and staurosporine (NSC755774) were obtained from the National Cancer Institute (NCI) Developmental Therapeutics Program Chemical Repository (34). The FDA-approved anticancer drug set is available from the NCI Developmental Therapeutics Program. […] The stock solutions were prepared in dimethyl sulfoxide (DMSO, Sigma-Aldrich, St. Louis, MO, cat. D2650) at 800-fold the tested concentration and stored at -70 degrees C prior to their use. All drugs and investigational agents were tested over a range starting from a high concentration at or near the clinical Cmax and decreasing in half-log increments. If the clinical Cmax for an agent had not been determined, the highest concentration tested was 10 microM.
2.3 Cell Culture. All cells were maintained in an incubator at 37 degrees C and 5% CO2 with 95% humidity. The PDC lines were cultured according to standard operating procedures established by the NCI PDMR. All PDCs were thawed and cultured in Matrigel-coated flasks prepared with a working solution of 1X Ham's F-12 nutrient mix, without supplementation (Invitrogen, cat. 11765054), 100 U/mL penicillin-streptomycin (Invitrogen, cat. 15140122), and 2.5% Matrigel (Corning Inc., cat. 354248) for the first three passages. The 857933-349-R-J2-PDC line was cultured in 6C/Colon 1B media, which includes advanced DMEM/F-12 (Thermo Fisher Scientific, cat. 12634028), 10 mM HEPES (Thermo Fisher Scientific, cat. 15630080), 1X GlutaMAX supplement (Thermo Fisher Scientific, cat. 35050061), 0.1 mg/mL primocin (InvivoGen, cat. ant-pm-2), 10% defined fetal bovine serum, heat inactivated (HyClone Laboratories Inc., cat. SH30070.03HI), 50% L-WRN conditioned media (ATCC, cat. CRL-3276), 1.25 mM N-Acetyl-L-cysteine (Sigma-Aldrich, cat. A9165), 10 mM nicotinamide (Sigma-Aldrich, cat. N0636), 1X B-27 supplement (Thermo Fisher Scientific, cat. 17504044), 1X N-2 supplement (Thermo Fisher Scientific, cat. 17502048), 10 microM Y-27632 dihydrochloride (Tocris Bioscience, cat. 1254), and 50 ng/mL human EGF recombinant protein (Thermo Fisher Scientific, cat. PHG0311). The 485176-168-R4-J1-PDC line was cultured in Panc media, which includes all 6C/Colon 1B media components plus 100 ng/mL human FGF-10 (Thermo Fisher Scientific, cat. 100-26), 500 nM SB-431542 (Selleckchem, cat. S1067), and gastrin (Tocris, cat. 3006).
[…]

[1] = compound alone, run of 02/26/2024
[2] = compound alone, run of 02/20/2024
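Note: spheroids exposed to compounds for one week before readout.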
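Throughout, for viability, T/C: percent viability relative to vehicle DMSO wells taken as 100%.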

SMILES	IC50 (curve of compound)	IC50 [1] [nM]	IC50 [2]	viability, T/C (compound 0.0316 µM)	viability, T/C (compound 0.1 µM)	viability, T/C (compound 0.316 µM)	viability, T/C (compound 1 µM)	viability, T/C (compound 3.16 µM)	viability, T/C (compound 10 µM)	viability, T/C (compound 0.000999 µM)	viability, T/C (compound 0.00316 µM)	viability, T/C (compound 0.00999 µM)	viability, T/C (compound 0.0999 µM)
CC1COCCN1c1cc(-c2ccnn2C)c2ccnc(-c3ccn[nH]3)c2n1 (stereo not given)				75.8% and 95.2% and 75.5%	52.4% and 84.3% and 52.1%	50.2% and 75.8% and 40.3%	46.9% and 63.2% and 44.1%	55.8% and 55.3% and 45.5%	51.8% and 61.9% and 43.6%				
CC1COCCN1c1cc(C2(O)CC3CCC(C2)O3)c2cnn(-c3ccn[nH]3)c2n1 (stereo not given)				68.6% and 76.9% and 98%	52% and 53% and 88.7%	43.7% and 48.3% and 77.2%	38.1% and 42% and 63.5%	46.3% and 45.1% and 55.5%	37.5% and 47.3% and 50.1%				
COc1cc(C2c3cc4c(cc3C(OC3OC5COC(C)OC5C(O)C3O)C3COC(=O)C23)OCO4)cc(OC)c1O (stereo not given)				86.8% and 82.9% and 104%	53.1% and 58.3% and 93.6%	55.8% and 48.1% and 82.6%	48.6% and 52.9% and 78.4%	42.6% and 39.1% and 59.5%	27.6% and 27.1% and 41.6%				
Cc1[nH]c2ccc(F)cc2c1-c1nc2c3cccnc3c3ncccc3c2[nH]1		> 10000	> 10000 nM	106% [middle of 12 runs]	107% [middle of 12 runs]	103% [middle of 12 runs]	104% [middle of 12 runs]	92.1% [middle of 12 runs]	95.5% [middle of 12 runs]				
Cc1[nH]c2ccccc2c1CCNCc1ccc(/C=C/C(=O)NO)cc1	> 316 nM and 283 nM			107% and 104% and 96.4%		53% and 66.9% and 44.9%				100% and 105% (2×)	102% (2×) and 105%	102% and 112% and 104%	102% (2×) and 94.5%
Cn1ncnc1[C@H]1c2n[nH]c(=O)c3cc(F)cc(c23)N[C@@H]1c1ccc(F)cc1	> 316 nM			94.3% and 104% and 94.9%		96.8% and 101% and 85.9%				102% and 99.8% and 101%	99.8% and 104% and 94%	99.8% and 105% and 98.9%	97.9% and 101% and 106%
O=C(c1cc(Cc2n[nH]c(=O)c3ccccc23)ccc1F)N1CCN(C(=O)C2CC2)CC1	> 10000 nM			99.4% and 111% and 122%	104% and 105% and 95.9%	90.5% and 106% and 98.7%	92.2% and 107% and 88.4%	108% and 98.6% and 97%	101% and 106% and 96%				

Second part, led by results:

IC50 (curve of compound)	IC50 [1] [nM]	IC50 [2]	SMILES	viability, T/C (compound 0.0316 µM)	viability, T/C (compound 0.1 µM)	viability, T/C (compound 0.316 µM)	viability, T/C (compound 1 µM)	viability, T/C (compound 3.16 µM)	viability, T/C (compound 10 µM)	viability, T/C (compound 0.000999 µM)	viability, T/C (compound 0.00316 µM)	viability, T/C (compound 0.00999 µM)	viability, T/C (compound 0.0999 µM)
> 10000 nM			C=CC(=O)N1CCN(c2nc(=O)n(-c3c(C)ccnc3C(C)C)c3nc(-c4c(O)cccc4F)c(F)cc23)C(C)C1 (stereo not given)	106% and 112% and 111%	94.1% and 102% and 90.6%	100% and 107% and 103%	102% and 110% and 106%	107% (2×) and 108%	90.5% and 111% and 101%				
> 10000 nM			CC(C)n1c(=O)n(C)c2cnc3cc(F)c(-c4ccc(OCCCN5CCCCC5)nc4)cc3c21	105% and 109% (2×)	101% and 106% and 90.6%	104% and 109% and 108%	98.6% and 103% and 99.5%	104% and 110% and 107%	78.2% and 107% and 72.4%				
7380 nM and > 10000 nM and 2570 nM			CC1COCCN1c1cc(C2(S(C)(=N)=O)CC2)nc(-c2ccnc3[nH]ccc23)n1 (stereo not given)	107% and 106% and 99%	96.8% and 99.1% and 94.2%	96.2% and 105% and 84.3%	68.3% and 92.9% and 61.6%	57.1% and 82.2% and 48.8%	47% and 65.2% and 39.2%				
115 nM and 282 nM and 138 nM			CC[C@@]1(O)C(=O)OCc2c1cc1n(c2=O)Cc2cc3c(CN(C)C)c(O)ccc3nc2-1	70.4% and 96.6% and 71.6%		40.8% and 48.1% and 34.1%				98.7% and 105% and 103%	82.7% and 104% and 89%	92.6% and 97.9% and 98.2%	52.3% and 67.8% and 57.9%
5.62 nM and 16 nM and 4.84 nM			CCc1c2c(nc3ccc(O)cc13)-c1cc3c(c(=O)n1C2)COC(=O)[C@]3(O)CC	28% and 35.3% and 21.5%		11.9% and 6.62% and 10.2%				85.5% and 93.5% and 77.5%	48.9% and 84.5% and 50.1%	50% and 57.4% and 48.4%	15.3% and 20.7% and 13%
	> 10000		CN(C)c1ccc(Nc2c3ccc(NC(=O)CCN4CCCC4)cc3nc3cc(NC(=O)CCN4CCCC4)ccc23)cc1	104% [middle of 12 runs]	105% [middle of 12 runs]	106% [middle of 12 runs]	103% [middle of 12 runs]	88.4% [middle of 12 runs]	74.7% [middle of 12 runs]				
> 10000 nM and 8850 nM			COc1ccc([C@@H](O)c2cc(-c3ncnc4cc(N5CCOCC5)ccc34)c(F)cc2Cl)nn1	106% and 108% and 100%	90.5% and 103% and 89.7%	105% (2×) and 86%	82.6% and 98.4% and 79.4%	70.2% and 85.2% and 62%	56.8% and 59.8% and 48.4%				
> 10000 nM			Cc1cccc(N(C)C(=O)C2C(O)CCN2c2nc(C)cc(C(F)(F)F)c2C#N)c1 (stereo not given)	104% and 102% and 105%	93.1% and 96.1% and 98.8%	107% and 103% and 101%	91.1% and 105% and 94.8%	114% and 105% and 106%	91.3% and 104% and 91.7%				
		169 nM [middle of 10 runs]	Cc1cnc(CNC(=O)c2c(=O)c3ccc(N4CCCN(C)CC4)nc3n3c2sc2ccccc23)cn1	92.5% [middle of 12 runs]	69.2% [middle of 11 runs]	26.9% [middle of 12 runs]	5.05% [middle of 12 runs]	2.9% [middle of 12 runs]	1.41% [middle of 12 runs]				

— PubChem BioAssay AID2060491 (Molecular Pharmacology Branch, DTP, NCI, 2025)
